Measurements published in US20230265151A1, “GIP/GLP1 CO-AGONIST COMPOUNDS” (priority 2020, published 2023).
Read-outs that look alike come from different tables or passages of the source.

Legend:
Assay type in all cases: cell-based
hGIPR = target: T1, hGIPR (Homo sapiens, UniProt P48546); experiment: Functional cAMP formation (HTRF) in HEK-293 clonal cells expressing hGIPR, 0.1% bovine casein, without or with 1.0% human serum albumin; conditions: for Emax: percent of maximal response to GIP(1-42)NH2, read-out: hGIPR Emax, % ± SEM; for EC50: cAMP, 0.1% bovine casein (no human serum albumin), geometric mean
T1 construct: expressed in transfected cells
T1 sequence (P48546 22-466): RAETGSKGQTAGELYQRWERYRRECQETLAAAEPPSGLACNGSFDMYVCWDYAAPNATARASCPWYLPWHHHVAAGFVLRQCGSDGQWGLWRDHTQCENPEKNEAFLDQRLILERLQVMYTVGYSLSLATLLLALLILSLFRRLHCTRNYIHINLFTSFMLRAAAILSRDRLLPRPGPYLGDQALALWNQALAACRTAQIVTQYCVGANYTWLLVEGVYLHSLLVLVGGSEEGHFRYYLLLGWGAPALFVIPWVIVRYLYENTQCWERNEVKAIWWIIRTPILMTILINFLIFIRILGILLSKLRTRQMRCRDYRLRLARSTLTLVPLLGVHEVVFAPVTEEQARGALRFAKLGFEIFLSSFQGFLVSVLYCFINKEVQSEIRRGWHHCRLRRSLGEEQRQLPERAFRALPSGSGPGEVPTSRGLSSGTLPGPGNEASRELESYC
Method in brief: (§1)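 Cells were stimulated with peptide for 30 min at 37° C, then lysed in buffer carrying cAMP-d2 and anti-cAMP Eu3+-cryptate for a competitive HTRF read after at least 60 min at room temperature. The 665/620 nm ratio was converted to nM cAMP against a standard curve.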

hGLP-1R = hGLP-1R (Homo sapiens, UniProt P43220); experiment: Functional cAMP formation (HTRF) in HEK-293 clonal cells expressing hGLP-1R, 0.1% bovine casein, without or with 1.0% human serum albumin; parameters: expressed in transfected cells; conditions: for Emax: percent of maximal response to GLP-1(7-36)NH2, read-out: hGLP-1R Emax, % ± SEM; for EC50: cAMP
Method in brief: as §1

hGCGR = target: T2, hGCGR (Homo sapiens, UniProt P47871); experiment: Functional cAMP formation (HTRF) in HEK-293 clonal cells expressing hGCGR, 0.1% bovine casein, without or with 1.0% human serum albumin
T2 construct: expressed in transfected cells
Method in brief: as §1

[1] = 37° C., read-out: hGIPR EC50, nM (SEM, n)
[2] = HEK293, cAMP, 37° C., 0.1% bovine casein, arithmetic mean
[3] = 37° C., 0.1% bovine casein (no human serum albumin), geometric mean, read-out: hGLP-1R EC50, nM (SEM, n)
[4] = cAMP, 37° C., 0.1% bovine casein (no human serum albumin), geometric mean, read-out: hGCGR EC50, nM (SEM, n)
[5] = cAMP, 37° C., 0.1% bovine casein and 1.0% human serum albumin, geometric mean (SEM, n), read-out: hGCGR EC50, nM (SEM, n)
[6] = HEK293, 0.1% bovine casein and 1.0% human serum albumin, 37° C.

Chain of hGLP-1R (P43220 24-463): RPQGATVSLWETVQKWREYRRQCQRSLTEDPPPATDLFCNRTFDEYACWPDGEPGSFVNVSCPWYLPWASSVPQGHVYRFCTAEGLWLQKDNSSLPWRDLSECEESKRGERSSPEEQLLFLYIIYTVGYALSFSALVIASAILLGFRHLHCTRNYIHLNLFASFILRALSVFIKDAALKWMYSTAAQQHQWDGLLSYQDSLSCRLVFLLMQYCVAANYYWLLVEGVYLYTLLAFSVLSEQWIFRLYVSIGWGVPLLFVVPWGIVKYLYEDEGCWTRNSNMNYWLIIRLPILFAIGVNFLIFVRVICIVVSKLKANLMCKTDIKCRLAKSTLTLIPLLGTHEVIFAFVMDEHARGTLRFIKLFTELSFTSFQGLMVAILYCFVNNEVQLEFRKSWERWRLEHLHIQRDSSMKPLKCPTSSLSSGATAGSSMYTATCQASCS
T2 sequence (P47871 26-477): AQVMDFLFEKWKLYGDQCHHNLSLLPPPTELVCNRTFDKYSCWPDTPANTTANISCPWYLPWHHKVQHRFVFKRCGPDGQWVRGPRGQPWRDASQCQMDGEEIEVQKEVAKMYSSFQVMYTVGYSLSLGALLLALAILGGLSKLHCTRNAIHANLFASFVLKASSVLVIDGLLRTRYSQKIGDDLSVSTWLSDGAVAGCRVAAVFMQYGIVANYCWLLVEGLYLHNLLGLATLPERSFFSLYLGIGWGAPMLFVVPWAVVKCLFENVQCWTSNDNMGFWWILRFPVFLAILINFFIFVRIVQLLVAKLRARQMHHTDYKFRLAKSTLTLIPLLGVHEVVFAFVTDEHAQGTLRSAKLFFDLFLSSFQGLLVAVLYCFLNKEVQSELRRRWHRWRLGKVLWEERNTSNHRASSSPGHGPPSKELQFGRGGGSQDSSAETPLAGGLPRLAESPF

| Structure (SMILES) | Emax (hGIPR; HEK293, cAMP, 37° C., 0.1% bovine casein and 1.0% human serum albumin) [%] | EC50 (hGIPR; [1]) [nM] | Emax (hGLP-1R; [2]) [%] | EC50 (hGLP-1R; [3]) [nM] | EC50 (hGCGR; [4]) [nM] | EC50 (hGCGR; [5]) [nM] | Emax (hGIPR; [6]) [%] | Emax (hGIPR; [2]) [%] | Emax (hGLP-1R; [6]) [%] | EC50 (hGCGR; 0.1% bovine casein and 1.0% human serum albumin, 37° C., geometric mean, read-out: hGCGR EC50, nM (SEM, n)) [nM] | EC50 (hGIPR; hGIPR EC50, nM (SEM, n), incubated at 37° C.) [nM] | EC50 (hGLP-1R; hGLP-1R EC50, nM (SEM, n), incubated at 37° C., 0.1% bovine casein (no human serum albumin), geometric mean) [nM] | EC50 (hGCGR; hGCGR EC50, nM (SEM, n), cAMP, incubated at 37° C., 0.1% bovine casein (no human serum albumin), geometric mean) [nM] | EC50 (hGLP-1R; 37° C., 0.1% bovine casein and 1.0% human serum albumin, geometric mean (SEM, n), read-out: hGLP-1R EC50, nM (SEM, n)) [nM] |
| --- | --- | --- | --- | --- | --- | --- | --- | --- | --- | --- | --- | --- | --- | --- |
| CC[C@H](C)[C@H](NC(=O)[C@H](CC(C)C)NC(=O)[C@](C)(Cc1ccc(O)cc1)NC(=O)[C@H](CCCCNC(=O)CCCCCCCNC(=O)COCCOCCNC(=O)CC[C@H](NC(=O)CCCCCCCCCCCCC(=O)O)C(=O)O)NC(=O)[C@@H](NC(=O)[C@H](Cc1ccccc1)NC(=O)[C@H](CCCN)NC(=O)C(C)(C)NC(=O)[C@H](CCC(N)=O)NC(=O)[C@H](C)NC(=O)[C@H](CCC(N)=O)NC(=O)[C@H](CCCN)NC(=O)[C@H](CC(=O)O)NC(=O)[C@H](CC(C)C)NC(=O)[C@](C)(CC(C)C)NC(=O)[C@@H](NC(=O)C(C)(C)NC(=O)[C@H](Cc1ccncc1)NC(=O)[C@H](CC(=O)O)NC(=O)[C@H](CO)NC(=O)[C@@H](NC(=O)[C@](C)(Cc1ccccc1F)NC(=O)[C@@H](NC(=O)CNC(=O)[C@H](CCC(=O)O)NC(=O)C(C)(C)NC(=O)[C@@H](N)Cc1ccc(O)cc1)[C@@H](C)O)[C@@H](C)O)[C@@H](C)CC)[C@@H](C)CC)C(=O)N[C@@H](CCCCNC(=O)CCCCCCCNC(=O)COCCOCCNC(=O)CC[C@H](NC(=O)CCCCCCCCCCCCC(=O)O)C(=O)O)C(=O)NCC(=O)NCC(=O)N1CCC[C@H]1C(=O)N[C@@H](CO)C(=O)N[C@@H](CO)C(=O)NCC(=O)N[C@@H](C)C(=O)N1CCC[C@H]1C(=O)N1CCC[C@H]1C(=O)N1CCC[C@H]1C(=O)N[C@@H](CO)C(N)=O [Example 452] | 100 | 0.0192 | 117 | 0.259 | > 9950 | > 9950 |  |  |  |  |  |  |  |  |
| CC[C@H](C)[C@H](NC(=O)[C@H](CCCN)NC(=O)[C@H](CC(=O)O)NC(=O)[C@H](CC(C)C)NC(=O)[C@](C)(CC(C)C)NC(=O)[C@@H](NC(=O)[C@H](CO)NC(=O)[C@H](Cc1ccc2ccccc2c1)NC(=O)[C@H](CC(=O)O)NC(=O)[C@H](CO)NC(=O)[C@@H](NC(=O)[C@](C)(Cc1ccccc1F)NC(=O)[C@@H](NC(=O)CNC(=O)[C@H](CCC(=O)O)NC(=O)C(C)(C)NC(=O)[C@@H](N)Cc1ccc(O)cc1)[C@@H](C)O)[C@@H](C)O)[C@@H](C)CC)C(=O)N[C@@H](C)C(=O)N[C@@H](CCC(N)=O)C(=O)NC(C)(C)C(=O)N[C@@H](CCCCNC(=O)COCCOCCNC(=O)COCCOCCNC(=O)CC[C@H](NC(=O)CCCCCCCCCCCCC(=O)O)C(=O)O)C(=O)N[C@@H](Cc1ccccc1)C(=O)N[C@H](C(=O)N[C@H](CCC(=O)O)C(=O)N[C@@](C)(Cc1ccc(O)cc1)C(=O)N[C@@H](CC(C)C)C(=O)N[C@H](C(=O)N[C@@H](CCC(=O)O)C(=O)NCC(=O)NCC(=O)N1CCC[C@H]1C(=O)N[C@@H](CO)C(=O)N[C@@H](CO)C(=O)NCC(=O)N[C@@H](C)C(=O)N1CCC[C@H]1C(=O)N1CCC[C@H]1C(=O)N1CCC[C@H]1C(=O)N[C@@H](CO)C(=O)N[C@@H](CCCCNC(=O)COCCOCCNC(=O)COCCOCCNC(=O)CC[C@H](NC(=O)CCCCCCCCCCCCC(=O)O)C(=O)O)C(N)=O)[C@@H](C)CC)[C@@H](C)CC [Example 254] |  |  |  |  | > 9950 |  | 68.5 | 98.2 | 122 | > 9950 |  |  |  |  |
| CCCCCCCCCCCC(=O)N[C@@H](CCC(=O)NCCOCCOCC(=O)NCCOCCOCC(=O)NCCCC[C@H](NC(=O)[C@H](CCCN)NC(=O)[C@H](CC(=O)O)NC(=O)[C@H](CC(C)C)NC(=O)[C@](C)(CC(C)C)NC(=O)[C@@H](NC(=O)[C@H](CO)NC(=O)[C@H](Cc1ccncc1)NC(=O)[C@H](CC(=O)O)NC(=O)[C@H](CO)NC(=O)[C@@H](NC(=O)[C@](C)(Cc1ccccc1F)NC(=O)[C@@H](NC(=O)CNC(=O)[C@H](CCC(=O)O)NC(=O)C(C)(C)NC(=O)[C@@H](N)Cc1ccc(O)cc1)[C@@H](C)O)[C@@H](C)O)[C@@H](C)CC)C(=O)N[C@@H](C)C(=O)N[C@@H](CCC(N)=O)C(=O)NC(C)(C)C(=O)N[C@@H](CCC(=O)O)C(=O)N[C@@H](Cc1ccccc1)C(=O)N[C@H](C(=O)N[C@@H](CCCCNC(=O)COCCOCCNC(=O)COCCOCCNC(=O)CC[C@H](NC(=O)CCCCCCCCCCC)C(=O)O)C(=O)N[C@@](C)(Cc1ccc(O)cc1)C(=O)N[C@@H](CC(C)C)C(=O)N[C@H](C(=O)N[C@@H](CCC(=O)O)C(=O)NCC(=O)NCC(=O)N1CCC[C@H]1C(=O)N[C@@H](CO)C(=O)N[C@@H](CO)C(=O)NCC(=O)N[C@@H](C)C(=O)N1CCC[C@H]1C(=O)N1CCC[C@H]1C(=O)N1CCC[C@H]1C(=O)N[C@@H](CO)C(N)=O)[C@@H](C)CC)[C@@H](C)CC)C(=O)O [Example 138] |  |  |  |  |  |  |  |  |  |  | 0.0197 | 0.267 | > 9950 |  |
| CC[C@H](C)[C@H](NC(=O)[C@H](CC(C)C)NC(=O)[C@](C)(Cc1ccc(O)cc1)NC(=O)[C@H](CCCCNC(=O)COCCOCCNC(=O)COCCOCCNC(=O)CC[C@H](NC(=O)CC[C@H](NC(=O)CCCCCCCCCCCCC(=O)O)C(=O)O)C(=O)O)NC(=O)[C@@H](NC(=O)[C@H](Cc1ccccc1)NC(=O)[C@H](CCCN)NC(=O)C(C)(C)NC(=O)[C@H](CCC(N)=O)NC(=O)[C@H](C)NC(=O)[C@H](CCC(N)=O)NC(=O)[C@H](CCCN)NC(=O)[C@H](CC(=O)O)NC(=O)[C@H](CC(C)C)NC(=O)[C@](C)(CC(C)C)NC(=O)[C@@H](NC(=O)C(C)(C)NC(=O)[C@H](Cc1ccc(O)cc1)NC(=O)[C@H](CC(=O)O)NC(=O)[C@H](CO)NC(=O)[C@@H](NC(=O)[C@](C)(Cc1ccccc1F)NC(=O)[C@@H](NC(=O)CNC(=O)[C@H](CCC(=O)O)NC(=O)C(C)(C)NC(=O)[C@@H](N)Cc1ccc(O)cc1)[C@@H](C)O)[C@@H](C)O)[C@@H](C)CC)[C@@H](C)CC)C(=O)N[C@@H](CCCCNC(=O)COCCOCCNC(=O)COCCOCCNC(=O)CC[C@H](NC(=O)CC[C@H](NC(=O)CCCCCCCCCCCCC(=O)O)C(=O)O)C(=O)O)C(=O)NCC(=O)NCC(=O)N1CCC[C@H]1C(=O)N[C@@H](CO)C(=O)N[C@@H](CO)C(=O)NCC(=O)N[C@@H](C)C(=O)N1CCC[C@H]1C(=O)N1CCC[C@H]1C(=O)N1CCC[C@H]1C(=O)N[C@@H](CO)C(N)=O [Example 480] |  | 0.00955 | 120 | 0.124 | > 9950 | > 9950 |  |  |  |  |  |  |  | 2.65 |
